In patent US8193168B2, “Use of a TRPM5 inhibitor to regulate insulin and GLP-1 release” (Redpoint Bio Corporation, priority 2007, dated 2012):

Test system: Beta-TC-6 cells
Test: Insulin release enhancement in Beta-TC-6 cells (insulin ELISA)
Format: cell-based, mouse
Settings: for Percent Enhancement of Insulin Secretion (10 μM): compound at 10 μM, compared to glucose-dependent insulin production
Description: Beta-TC-6 cells are an insulin-secreting cell line derived from transgenic mice expressing the large T-antigen of simian virus 40 (SV40) in pancreatic beta-cells as described by Poitout et al., Diabetes, 44:306-313 (1995). The cell line was obtained from ATCC cell bank CAT# CRL-11506 and grown in Dulbecco's Modified Eagle's Medium (DMEM) with 15% fetal bovine serum (FBS), 4 mM glutamine, 4.5 mM glucose 1500 mg/L sodium bicarbonate and 1× penn/strep antibiotic mix in a 37° C. incubator with 5% CO2. Cultures were routinely split 1:2 twice a week with the aid of trypsin.
On the day before the assay 0.1×10^6 Beta-TC-6 cells were plated into each well of 96 well plates, and the cells cultured overnight in growth media.
On the next day, growth media was removed from the plate and the monolayers rinsed with phosphate buffered saline (PBS) and pre-incubated 30 mins at 37° C. in Krebs-Ringer Bicarbonate Buffer (KRBB) consisting of 118.5 mM NaCl, 2.54 mM CaCl2, 1.19 mM KH2PO4, 4.74 mM KCl, 25 mM NaHCO3, 1.19 mM MgSO4, 10 mM HEPES buffer and 0.1% bovine serum albumin at pH 7.4. This buffer was removed and replaced with 100 μL of the same buffer containing various insulin release modulators: including various concentrations of glucose up to 12 mM and compounds up to 100 μM. Compounds stock solutions, e.g. 10-20 mM, were diluted in DMSO. Final DMSO concentrations in incubation buffer were 0.5% or less. Vehicle controls were included. Static incubations were then performed for 2 h at 37° C. The entire incubation volume was collected after the 2 h incubation for insulin assay.
ELISA Protocol for insulin determinations. The following protocol was used for doing ELISA using the Rat/Mouse Insulin ELISA Kit from Linco Research, Inc., CAT#EZRMI-13K and Amplex® Red Hydrogen Peroxide/Peroxidase Assay Kit, CAT#A22188, and Amplex® Red reagent (10-acetyl-3,7-dihydroxyphenoxazine) CAT#A12222.
All reagents were Pre-warmed to room temperature before setting up experiment.
1. Dilute the 10× washing buffer into 1× washing buffer. 50 mL+450 mL de-ionized water. Do 1:10 dilution to the cell culture supernatant (Beta-TC-6 cell incubation).
2. Use one column (8 wells) wells for standard samples and QC1 and QC2, typically 0 and 5 ng/mL of insulin. On some plates full standard curves for insulin obtained as shown below.
3. Cover the unused wells well. Wash each well 3 times with 300 μL of 1× washing buffer each time. (2 minutes each washing step on the shaker.) Decant Wash Buffer and remove the residual amount from all wells by inverting the plate and tapping it smartly onto absorbent towels several times.
4. Add 20 μL Assay Buffer into that blank well and 10 μL into those wells for standards and samples.
5. Add 10 μL rat insulin standards and samples to the appropriate wells.
6. Add 80 μL Detection Antibody to all wells. Cover the plate and incubate at room temperature for 2 hours.
7. Tear off the plate cover and decant solutions from the plate. Tap to remove residual solutions in well.
8. Wash well 3 times with diluted wash buffer 300 μL per well per wash (2 minutes each washing step on the shaker). Tap to remove residual solutions as before.
9. Add 100 μL Enzyme Solution to each well. Cover plate with sealer and incubate with moderate shaking at room temperature for 30 min on the microtiter plate shaker.
10. Remove sealer, decant solutions from the plate and tap plate to remove the residual fluid.
11. Wash wells 6 times with diluted Wash Buffer, 300 μL per well per wash. Decant and tap after each wash to remove residual buffer.
12. Prepare 5 mL working solution of […] Amolex Red reagent containing 2.0 mM H2O2. 4.45 mL of 1× Reaction buffer+50 μL 10 mM Amplex Reagent+500 μL 20 mM H2O2.
13. Add 100 μL of the Amplex Red reagent/H2O2 to each well.
14. Incubate the reactions. Incubate at room temperature for 30 minutes, protected from light (using foil to wrap the plate). […]

Compound	insulin secretion (FIG. 5)	Percent Enhancement of Insulin Secretion (10 μM)	glucose dependence of stimulation of insulin release (varying glucose concentration, FIG. 3 and FIG. 7)
COc1ccc(/C=N/NC(=O)Cc2cccc3ccccc23)cc1OC [Example 3, (E)-N′-(3,4-Dimethoxybenzylidene)-2-(naphthalene-1-yl)acetohydrazide]	increases insulin secretion	250%	increases insulin secretion in a glucose-dependent manner
COc1ccc(/C=N/NC(=O)CCn2c3ccccc3c3ccccc32)cc1OC [Example 23, 3-Carbazol-9-ylpropionic acid (3,4-dimethoxybenzylidene)hydrazide]	–	208%	–
